Experimental data reported in patent US5122381A, “Composition and process for dissolving a sparingly water-soluble flavonoid” (San-Ei Chemical Industries, Ltd., priority 1989, dated 1992).

Legend:
[1] = Dissolution of Rutin: rutin remaining in solution (supernatant, high-speed liquid chromatography); format: physicochemical; conditions: 13.5 wt. % of Glycoside I relative to rutin; standing 14 days at room temperature
Experimental: (§1) Water (100 ml) containing 12 W/V% of granulated sugar and 0.3 W/V% of citric acid was poured into each of five test tubes (100 ml) No. 1 to 5, to which 0.4 ml of rutin (10 W/V%) solution in ethanol (equivalent to 0.04 g of rutin) was added. Immediately thereafter, mixed was a solution of the Glycoside I (13.4 W/V%) in ethanol in amounts of 0.024 ml, 0.032 ml, 0.04 ml and 0.05 ml respectively to the test tubes No. 2 to 5. These amounts were equivalent to 8.0 wt. %, 10.8 wt. %, 13.5 wt. % and 16.0 wt. %, respectively relative to the amount of rutin.
(§2) All of these mixtures including No. 1 to which the Glycoside I had not been added were transparent when observed immediately after mixing. After standing for 24 hours, some mixtures were recognized to have precipitation. Standing was continued for 14 days at room temperature in observing precipitation states of the mixtures. On completion of this standing, rutin concentration of each supernatant liquid of the mixtures was measured using high-speed liquid chromatography.

[2] = Dissolution of Rutin: precipitation observed on standing with Glycoside I; format: physicochemical; set-up: key: ++: indicating the greatest degree of precipitation; +: precipitation was observed; -: indicating no observed precipitation; conditions: 0.04 wt % rutin
Experimental: as §1, §2
The "+" and "-" signs in Table 1 denote comparative amounts of precipitation of the rutin. The range extends from "++", indicating the greatest degree of precipitation, down to "-", indicating no observed precipitation.

C[C@@H]1O[C@@H](OC[C@H]2O[C@@H](Oc3c(-c4ccc(O)c(O)c4)oc4cc(O)cc(O)c4c3=O)[C@H](O)[C@@H](O)[C@@H]2O)[C@H](O)[C@H](O)[C@H]1O [Rutin]
rutin stably dissolved in water [1]: at least 0.04 wt. % | Precipitation Observed ([2]; No. 1, Glycoside I 0 wt % relative to rutin, 1st day): + + | Precipitation Observed ([2]; No. 1, Glycoside I 0 wt % relative to rutin, 3rd day): + + | Precipitation Observed ([2]; No. 1, Glycoside I 0 wt % relative to rutin, 6th day): + + | Precipitation Observed ([2]; No. 1, Glycoside I 0 wt % relative to rutin, 14th day): + + | Precipitation Observed ([2]; No. 2, Glycoside I 8.0 wt % relative to rutin, 1st day): + | Precipitation Observed ([2]; No. 2, Glycoside I 8.0 wt % relative to rutin, 3rd day): + | Precipitation Observed ([2]; No. 2, Glycoside I 8.0 wt % relative to rutin, 6th day): + | Precipitation Observed ([2]; No. 2, Glycoside I 8.0 wt % relative to rutin, 14th day): +
